The values that follow come from patent EP3088389A1, “4-EPI-ISOFAGOMINE DERIVATIVES” (Dorphan S.A., priority 2015, dated 2016).

For assay [1], the target named is T1, Beta-galactosidase (Homo sapiens, UniProt P16278).
T1 construct: endogenous in cells; host or cells: human peripheral blood mononuclear cells (lysate)
T1 sequence (P16278 29-677): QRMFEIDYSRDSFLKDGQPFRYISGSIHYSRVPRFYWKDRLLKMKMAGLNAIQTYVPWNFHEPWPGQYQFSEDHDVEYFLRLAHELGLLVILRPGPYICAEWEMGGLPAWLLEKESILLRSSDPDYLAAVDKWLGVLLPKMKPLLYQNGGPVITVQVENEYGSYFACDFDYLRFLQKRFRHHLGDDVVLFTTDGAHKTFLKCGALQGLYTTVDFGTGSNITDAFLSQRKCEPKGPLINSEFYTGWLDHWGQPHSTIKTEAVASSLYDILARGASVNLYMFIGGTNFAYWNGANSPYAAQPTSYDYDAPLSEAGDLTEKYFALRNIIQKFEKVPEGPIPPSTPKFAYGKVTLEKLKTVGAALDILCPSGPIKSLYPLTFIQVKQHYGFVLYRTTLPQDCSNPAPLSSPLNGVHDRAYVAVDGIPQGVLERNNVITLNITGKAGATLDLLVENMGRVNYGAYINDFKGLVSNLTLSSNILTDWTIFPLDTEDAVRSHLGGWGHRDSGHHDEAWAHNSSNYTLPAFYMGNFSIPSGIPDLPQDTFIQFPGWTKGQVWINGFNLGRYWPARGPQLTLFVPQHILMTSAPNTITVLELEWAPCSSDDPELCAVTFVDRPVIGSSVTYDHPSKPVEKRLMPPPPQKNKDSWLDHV
Put plainly: Inhibition of wild type beta-galactosidase activity in human peripheral blood mononuclear cell lysate (Example 3). It counts as biochemical. The procedure:
Samples of human peripheral blood mononuclear cell lysate (2 x 10^6 cells per assay) were incubated with graded concentrations of compound in 25 mM sodium phosphate, pH 7.3, supplemented with 0.5% Triton X-100 and protease inhibitors, and 0.8 mM of 4-methylumbelliferyl β-D-galactopyranoside. After an incubation of 2 hours at 37°C, the enzymatic reactions were stopped by the addition of 0.15 M glycine, pH 10.2, and fluorescence was measured at 445 nm using an excitation wavelength of 365 nm.

In assay [2] the target is T1, Beta-galactosidase. Put plainly: Inhibition of wild type beta-galactosidase activity in human peripheral blood mononuclear cell lysate (Example 1). It counts as biochemical. Conditions: for IC50: human PBMC lysate, pH 7.3, 2 hours at 37°C. The procedure: Samples of human peripheral blood mononuclear cell lysate (2 x 10^6 cells per assay) were incubated with graded concentrations of compound N-nonyl-4-epi-isofagomine or 4-epi-isofagomine in 50 mM sodium phosphate, pH 7.3, supplemented with 1% Triton X-100 and protease inhibitors, and 0.8 mM of 4-methylumbelliferyl β-D-galactopyranoside. After an incubation of 2 hours at 37°C, the enzymatic reactions were stopped by the addition of 0.15 M glycine, pH 10.2, and fluorescence was measured at 445 nm using an excitation wavelength of 365 nm. The stock solutions of compound were at 20 mM in DMSO.
The results obtained with N-nonyl-4-epi-isofagomine (squares), 4-epi-isofagomine (triangles) and DMSO vehicle (circles) are presented on figure 1.

Assay [3] deals with T1, Beta-galactosidase. In words: Glycosidase specificity panel, beta-galactosidase from PBMC lysate (Example 4). It counts as biochemical. An excerpt: (§1) IC50 values indicated in table 1 are the concentrations of (2R,3R,4S,5R)-3-hydroxymethyl-2-pentylpiperidine-4,5-diol compound required to inhibit by half the different enzymatic activities.
The target of assay [4] is T1, Beta-galactosidase. Put plainly: Prevention of heat denaturation of beta-galactosidase in PBMC lysate at 48°C (Example 5). It counts as biochemical. From the text: The capacity of a compound of protecting an enzyme from denaturation predicts to some extent its pharmacological chaperone activity, i.e. its capacity of restoring enzymatic activity in patient cells exposed to the compound. The Applicant has evaluated whether (2R,3R,4S,5R)-3-hydroxymethyl-2-pentylpiperidine-4,5-diol can prevent heat denaturation of human beta-galactosidase following a procedure described by Suzuki et al 2014.
Samples of human peripheral blood mononuclear cell lysate (2 x 10^6 cells) in phosphate buffer, pH 7.3, 0.5% Triton X-100 and protease inhibitors were incubated at 48°C for 0, 5, 10, 20, and 40 minutes in the presence of graded concentrations of (2R,3R,4S,5R)-3-hydroxymethyl-2-pentylpiperidine-4,5-diol. The samples were then diluted in citrate buffer, pH 4.3, and 0.25 mM of 4-methylumbelliferyl β-D-galactopyranoside. After an incubation of 17 hours at 37°C, the reaction was stopped by the addition of glycine 0.15 M, pH 10.2. Fluorescence was determined at 445 nm using an excitation wavelength at 365 nm. The tested concentrations of (2R,3R,4S,5R)-3-hydroxymethyl-2-pentylpiperidine-4,5-diol, are 20 µM (square), 2 µM (triangle), 0.2 µM (diamond), 0.02 µM (circle) and 0 µM (line).

For the next assay, the target named is Beta-glucosidase. Put plainly: Glycosidase specificity panel (Example 4). It counts as biochemical, Human.
Description: as §1

The target of the next assay is Alpha-glucosidase. In words: Glycosidase specificity panel (Example 4). It counts as biochemical, Human.
Description: as §1

A further assay deals with Alpha-hexosaminidase. Put plainly: Glycosidase specificity panel (Example 4). It counts as biochemical, Human.
Description: as §1

For assay [5], the target named is Beta-hexosaminidase. Put plainly: Glycosidase specificity panel (Example 4). It counts as biochemical, Human.
Description: as §1

The next assay deals with T2, Beta-glucuronidase (Homo sapiens, UniProt P08236).
T2 sequence (P08236 23-651): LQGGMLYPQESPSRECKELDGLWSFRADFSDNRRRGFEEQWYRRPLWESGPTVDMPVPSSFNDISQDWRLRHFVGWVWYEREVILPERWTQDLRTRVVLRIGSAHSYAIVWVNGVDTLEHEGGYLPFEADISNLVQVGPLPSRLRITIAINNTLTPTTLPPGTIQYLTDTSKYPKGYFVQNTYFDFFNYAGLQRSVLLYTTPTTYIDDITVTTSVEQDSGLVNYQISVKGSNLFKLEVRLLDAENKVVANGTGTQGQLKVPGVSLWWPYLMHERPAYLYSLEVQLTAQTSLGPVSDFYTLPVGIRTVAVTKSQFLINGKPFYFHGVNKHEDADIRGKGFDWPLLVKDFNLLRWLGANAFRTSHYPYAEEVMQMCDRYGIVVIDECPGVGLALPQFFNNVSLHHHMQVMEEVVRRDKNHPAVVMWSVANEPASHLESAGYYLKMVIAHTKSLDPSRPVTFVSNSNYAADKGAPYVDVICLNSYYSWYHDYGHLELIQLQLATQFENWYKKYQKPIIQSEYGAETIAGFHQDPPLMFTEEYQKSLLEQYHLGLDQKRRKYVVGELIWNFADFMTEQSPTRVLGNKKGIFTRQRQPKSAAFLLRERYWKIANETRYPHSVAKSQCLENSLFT
Put plainly: Glycosidase specificity panel (Example 4). It counts as biochemical.
Description: as §1

Another assay deals with T3, Alpha-galactosidase (Homo sapiens, UniProt P06280).
T3 sequence (P06280 32-429): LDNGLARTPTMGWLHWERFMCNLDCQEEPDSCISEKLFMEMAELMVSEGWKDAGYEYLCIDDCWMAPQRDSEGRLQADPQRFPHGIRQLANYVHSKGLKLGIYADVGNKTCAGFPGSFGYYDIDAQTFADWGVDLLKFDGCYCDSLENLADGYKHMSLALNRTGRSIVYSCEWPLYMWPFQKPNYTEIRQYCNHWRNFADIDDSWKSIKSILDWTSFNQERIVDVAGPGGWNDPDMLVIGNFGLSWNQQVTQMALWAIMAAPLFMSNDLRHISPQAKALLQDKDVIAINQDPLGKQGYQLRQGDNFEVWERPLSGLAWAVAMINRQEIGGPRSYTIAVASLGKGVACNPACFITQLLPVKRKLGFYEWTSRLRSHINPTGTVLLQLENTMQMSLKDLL
Put plainly: Glycosidase specificity panel (Example 4). It counts as biochemical.
Description: as §1

For assay [6], the system named is mutated beta-galactosidase. Put plainly: Increase of mutated beta-galactosidase activity in fibroblasts of GM1-gangliosidosis patients (Example 6). It counts as cell-based, human. Conditions: 4 days. The procedure: GM02439 and GM05335 fibroblasts (Coriell Institute) were cultured for 4 days in the presence or the absence of 2 µM of (2R,3R,4S,5R)-3-hydroxymethyl-2-pentylpiperidine-4,5-diol. Cells were lysed in 100 mM sodium citrate, pH 4.8, supplemented with 1% Triton X-100 and protease inhibitors. B eta-galactosidase and beta-hexosaminidase activities were then determined in the cell lysates using fluorescence and colorimetric assays, respectively. Results presented are means of 4 values obtained from independent cultures. […] Hatched and empty bars: beta-galactosidase and beta-hexosaminidase activities, respectively.

Assay [7] deals with Beta-hexosaminidase. In words: Beta-hexosaminidase activity in fibroblasts of GM1-gangliosidosis patients (Example 6). It counts as cell-based, human. Conditions: GM02439 and GM05335 fibroblasts, 2 µM, 4 days. As to the method:
GM02439 and GM05335 fibroblasts (Coriell Institute) were cultured for 4 days in the presence or the absence of 2 µM of (2R,3R,4S,5R)-3-hydroxymethyl-2-pentylpiperidine-4,5-diol. Cells were lysed in 100 mM sodium citrate, pH 4.8, supplemented with 1% Triton X-100 and protease inhibitors. B eta-galactosidase and beta-hexosaminidase activities were then determined in the cell lysates using fluorescence and colorimetric assays, respectively. Results presented are means of 4 values obtained from independent cultures. Percent of deviation of each value is <30% from the mean. Hatched and empty bars: beta-galactosidase and beta-hexosaminidase activities, respectively.

Setting [8] is: human PBMC lysate, pH 7.3, 2 hours at 37°C, Example 3, read-out: IC50.

As to `CCCCCC1NCC(O)[C@@H](O)[C@H]1CO` (stereo in doubt) [(2R,3R,4S,5S)-3-hydroxymethyl-2-pentylpiperidine-4,5-diol], at Beta-galactosidase [1] (Example 3), the “fold less potent than (2R,3R,4S,5R) isomer” value is given as 150 fold. Besides, the IC50 (commonly the concentration that inhibits the measured activity by half) on Beta-galactosidase [1] (setting [8]) is 1.5 µM.

As to `OC[C@H]1CNC[C@@H](O)[C@H]1O` [4-epi-isofagomine], the IC50 at Beta-galactosidase [1] was 0.8 µM; against Beta-galactosidase [2], 0.07 µM.

Regarding `CCCCC[C@H]1NC[C@@H](O)[C@@H](O)[C@H]1CO` [(2R,3R,4S,5R)-3-Hydroxymethyl-2-pentylpiperidine-4,5-diol], the IC50 at Beta-galactosidase [1] (setting [8]) was 0.01 µM; on Beta-galactosidase [3], 0.02 µM; against Beta-glucosidase, 60 µM; against Alpha-glucosidase, over 160 µM; against Alpha-hexosaminidase, over 160 µM; against Beta-hexosaminidase [5] it was over 160 µM. For the same molecule, the IC50 was over 160 µM against Beta-glucuronidase and 150 µM on Alpha-galactosidase. Also, the activity at 0.02 µM on Beta-galactosidase [4] (0 minute) was found to be 100%; at Beta-galactosidase [4] (5 minutes), 70%; at Beta-galactosidase [4] (10 minutes), 46%; at Beta-galactosidase [4] (20 minutes) it was 23%; on Beta-galactosidase [4] (40 minutes) it was 11%. Besides, the activity at 0.2 µM at Beta-galactosidase [4] (0 minute) was 100%; at Beta-galactosidase [4] (5 minutes), 81%; on Beta-galactosidase [4] (10 minutes) it was 72%; at Beta-galactosidase [4] (20 minutes), 56%; at Beta-galactosidase [4] (40 minutes), 33%. In addition, the “time to loss of 50% of the beta-galactosidase activity” value at Beta-galactosidase [4] (2 µM) and on Beta-galactosidase [4] (20 µM) was over 40 min in each case. For the same molecule, the activity at 2 µM on Beta-galactosidase [4] (2 µM, 0 minute) was 100%; at Beta-galactosidase [4] (2 µM, 5 minutes), 82%; at Beta-galactosidase [4] (2 µM, 10 minutes), 84%; on Beta-galactosidase [4] (2 µM, 20 minutes), 73%; on Beta-galactosidase [4] (2 µM, 40 minutes), 70%. For the same molecule, the activity at 20 µM on Beta-galactosidase [4] (20 µM, 0 minute) stood at 100%; on Beta-galactosidase [4] (20 µM, 5 minutes) it was 93%; at Beta-galactosidase [4] (20 µM, 10 minutes) it was 95%; at Beta-galactosidase [4] (20 µM, 20 minutes), 85%; on Beta-galactosidase [4] (20 µM, 40 minutes), 87%. The “increase of mutated beta-galactosidase activity relative to untreated cells” value in assay [6] (infantile GM1-gangliosidosis cell line GM05335, 2 µM) is on record as 19 fold; in assay [6] (juvenile GM1-gangliosidosis cell line GM02439, 2 µM), 6.5 fold. The “increase of the beta-hexosaminidase activity” value in the assay on Beta-hexosaminidase [7] was “no increase”.

`CCCCCCCCCN1CC(O)C(O)C(CO)C1` (stereo not drawn) [N-nonyl-4-epi-isofagomine]: on Beta-galactosidase [2], the “fold less inhibitory on human beta-galactosidase than 4-epi-isofagomine” value was 140 fold and the IC50 turned out to be 10 µM.
